# Source: patent publication US6277861A, “Anti-convulsant isoquinolyl-benzamide derivatives” (SmithKline Beecham, p.l.c., priority 1997, dated 2001)
# Structures can show the parent of a compound that is named as a salt.
# Tests used:
# [1] = system: maximal electroshock seizure threshold; assay: Maximal electroshock seizure (MEST) threshold test, mouse model; format: in vivo, mice; details: 10 mg/kg p.o. at 2 h
# Description: The maximal electroshock seizure (MEST) threshold test in rodents is particularly sensitive for detecting potential anticonvulsant properties^1. In this model, anticonvulsant agents elevate the threshold to electrically-induced seizures whilst proconvulsants lower the seizure threshold.
# Mice (naive male, Charles River, U.K. CD-1 strain, 25-30 g) are randomly assigned to groups of 10-20 and dosed orally or intraperitoneally at a dose volume of 10 ml/kg with various doses of compound (0.3-300 mg/kg) or vehicle. […] The mean current and standard error required to induce a tonic seizure in 50% (CC50) of the mice in a particular treatment group is determined by the `up and down` method of Dixon and Mood (1948)^2. Statistical comparisons between vehicle- and drug-treated groups are made using the method of Litchfield and Wilcoxon (1949)^3.
# In control animals the CC50 is usually 14-18 mA. […] If a tonic convulsion does occur, then the current is decreased, and so on until all the animals in the group have been tested.
# Studies are carried out using a Hugo Sachs Electronik Constant Current Shock Generator with totally variable control of shock level from 0 to 300 mA and steps of 2 mA are usually used.
# [2] = target: novel receptor obtainable from rat forebrain tissue ([3H]-Compound A binding site); assay: Radioligand binding assay, displacement of [3H]-Compound A from rat forebrain tissue; details: competition with [3H]-Compound A, Table
# Description: WO 92/22293 (SmithKline Beecham) discloses compounds having anti-convulsantactivity, including inter alia the compound trans-(+)-6-acetyl-4S-(4-fluorobenzoylamino)-3,4-dihydro-2,2-dimethyl-2H-1-benzopyran-3R-ol (hereinafter referred to as Compound A). […] The affinity of test compounds to the novel receptor site is assessed as follows. Whole forebrain tissue is obtained from rats. The tissue is first homogenised in buffer (usually 50 mM Tris/HCl, pH 7.4). The homogenised tissue is washed by centrifugation and resuspension in the same buffer, then stored at -70° C. until used. To carry out the radioligand binding assay, aliquots of tissue prepared as above (usually at a concentration of 1-2 mg protein/ml) are mixed with aliquots of [3H]-Compound A dissolved in buffer. The final concentration of [3H]-Compound A in the mixture is usually 20 nM. The mixture is incubated at room temperature for 1 hour. [3H]-Compound A bound to the tissue is then separated from unbound [3H]-Compound A by filtration through Whatman GF/B glass fibre filters. The filters are then washed rapidly with ice-cold buffer. The amount of radioactivity bound to the tissue trapped on the filters is measured by addition of liquid scintillation cocktail to the filters followed by counting in a liquid scintillation counter. In order to determine the amount of "specific" binding of [3H]-Compound A, parallel assays are carried out as above in which [3H]-Compound A and tissue are incubated together in the presence of unlabelled Compound A (usually 3 μM). The amount of binding of [3H]-Compound A remaining in the presence of this unlabelled compound is defined as "non-specific" binding. This amount is subtracted from the total amount of [3H]-Compound A binding (i.e. that present in the absence of unlabelled compound) to obtain the amount of "specific" binding of [3H]-Compound A to the novel site. The affinity of the binding of test compounds to the novel site can be estimated by incubating together [3H]-Compound A and tissue in the presence of a range of concentrations of the compound to be tested. The decrease in the level of specific [3H]-Compound A binding as a result of competition by increasing concentrations of the compound under test is plotted graphically, and non-linear regression analysis of the resultant curve is used to provide an estimate of compound affinity in terms of pKi value.
# [3] = system: maximal electroshock seizure threshold; assay: Maximal electroshock seizure (MEST) threshold test, rat model; format: in vivo, rats; details: percentage increase in CC50 compared to the control, suspended in 1% methyl cellulose
# Description: The maximal electroshock seizure (MEST) threshold test in rodents is particularly sensitive for detecting potential anticonvulsant properties^1. In this model, anticonvulsant agents elevate the threshold to electrically-induced seizures whilst proconvulsants lower the seizure threshold. The threshold for maximal (tonic hindlimb extension) electroshock seizures in male rats (Sprague Dawley, 80-150 g, 6 weeks old) was determined by a Hugo Sachs Electronik stimulator which delivered a constant current (0.3 sec duration; from 1-300 mA in steps of 5-20 mA). The procedure is similar to that outlined above for mouse and full details are as published by Upton et al,.^4 The percentage increase or decrease in CC50 for each group compared to the control is calculated. Drugs are suspended in 1% methyl cellulose.
pKI Compound A [2],SMILES,percentage increases in seizure threshold [1] [%],Rat MEST at 2 mg/kg p.o at 2h (increases) [3]
–,"COc1cc(C)c(C(F)(F)F)cc1C(=O)Nc1cccc2c1CCN(C)C2C (racemic) [Example 6, (±) N-(1,2-Dimethyl-1,2,3,4-tetrahydroisoquinolin-5-yl)-5-trifluoromethyl-2-methoxy-4-methyl benzamide, hydrochloride]",36,–
–,"COc1cc(C(C)(C)C)ccc1C(=O)Nc1cccc2c1CCN(C)C2C (racemic) [Example 5, (±) N-(1,2-Dimethyl-1,2,3,4-tetrahydroisoquinolin-5-yl)-tert-butyl-2-methoxybenzamide, hydrochloride]",46,–
8.5,"COc1ccc(C(=O)Nc2ccc3c(c2)CN(C)CC3(C)C)cc1C(F)(F)F.Cl [Example 7, N-(2,4,4-Trimethyl-4H-isoquinolin-7-yl)-4-methoxy-3-trifluoromethylbenzamide, hydrochloride]",–,510
8.2,"CCOc1ccc(C(=O)Nc2ccc3c(c2)CN(C)CC3(C)C)cc1Br [Example 10, N-(2,4,4-Trimethyl-4H-isoquinolin-7-yl)-3-bromo-4-ethoxybenzamide]",–,294
8.0,"CC(C)c1ccc(C(=O)Nc2ccc3c(c2)CN(C)CC3(C)C)cc1C#N [Example 8, N-(2,4,4-Trimethyl-4H-isoquinolin-7-yl)-3-cyano-4-iso-propylbenzamide]",–,120
–,"COc1cc(OC(C)C)c(Cl)cc1C(=O)Nc1cccc2c1CCN(C)C2C (racemic) [Example 4, (±) N-(1,2-Dimethyl-1,2,3,4-tetrahydroisoquinolin-5-yl)-5-chloro-4-iso-propoxy-2-methoxybenzamide, hydrochloride]",47,–
8.3,"CCc1ccc(C(=O)Nc2ccc3c(c2)CN(C)CC3(C)C)cc1Br [Example 9, N-(2,4,4,-Trimethyl-4H-isoquinolin-7-yl)-3-bromo-4-ethylbenzamide]",–,53
7.9,"CC(C)Oc1ccc(C(=O)Nc2ccc3c(c2)CN(C)CC3(C)C)cc1Cl [Example 11, N-(2,4,4-Trimethyl-4H-isoquinolin-7-yl)-3-chloro--4-iso-propoxybenzamide]",–,204
